# Reference: PubChem BioAssay AID330 (DTP/NCI, 2004)
# Several values for one entry are separate records, joined by “and”; a condition that tells them apart may be missing. Identical values can stand only once. Inconclusive results and toxic doses are left out.
# Test system: P388 leukemia ip, CD2F1 mice, survival T/C
# Assay: NCI In Vivo Anticancer Drug Screen. Data for tumor model P388 Leukemia (intraperitoneal) in CD2F1 (CDF1) mice
# Conditions: endpoint: median survival time, higher = longer survival
# Method in brief: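 Mice carrying the transplanted tumor received test compound or vehicle. Survival was recorded in each group, and the value is the treated-group measurement divided by that of the vehicle-treated control group.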
# [1] = dose: 50.0 mg/kg/injection, schedule: Q01DX005 (ip), vehicle: saline with Tween-80
# [2] = dose: 100.0 mg/kg/injection, schedule: Q01DX005 (ip), vehicle: saline with Tween-80
# [3] = dose: 25.0 mg/kg/injection, schedule: Q01DX009 (ip), vehicle: saline with Tween-80
# [4] = dose: 50.0 mg/kg/injection, schedule: Q01DX009 (ip), vehicle: saline with Tween-80
# [5] = dose: 100.0 mg/kg/injection, schedule: Q01DX009 (ip), vehicle: saline with Tween-80
# [6] = dose: 100.0 mg/kg/injection, schedule: Q04DX003 (ip), vehicle: saline with Tween-80
# [7] = dose: 200.0 mg/kg/injection, schedule: Q01DX009 (ip), vehicle: saline with Tween-80
# [8] = dose: 200.0 mg/kg/injection, schedule: Q04DX003 (ip), vehicle: saline with Tween-80
# [9] = dose: 50.0 mg/kg/injection, schedule: Q01DX009 (ip), vehicle: Klucel (hydroxypropylcellulose) (HPC)
# [10] = dose: 60.0 mg/kg/injection, schedule: Q01DX005 (ip), vehicle: saline with Tween-80
# [11] = dose: 120.0 mg/kg/injection, schedule: Q01DX005 (ip), vehicle: saline with Tween-80
smiles,measurement,setting,value
CCOC(=O)CCC1=C(C)c2cc3[n-]c(cc4nc(cc5[n-]c(cc1n2)c(CCC(=O)OCC)c5C)C=C4C)cc3C.[Cu+2],T/C,"dose: 50.0 mg/kg/injection, schedule: Q01DX005 (ip), vehicle: Klucel (hydroxypropylcellulose) (HPC)",101 % of control
same,T/C,"dose: 100.0 mg/kg/injection, schedule: Q01DX005 (ip), vehicle: Klucel (hydroxypropylcellulose) (HPC)",97 % of control
same,T/C,"dose: 200.0 mg/kg/injection, schedule: Q01DX005 (ip), vehicle: Klucel (hydroxypropylcellulose) (HPC)",100 % of control
CC(=O)NNC(=O)c1ccc2ccccc2n1,T/C,"dose: 50.0 mg/kg/injection, schedule: Q01DX009 (ip), vehicle: saline sonified",100 % of control
same,T/C,"dose: 100.0 mg/kg/injection, schedule: Q01DX009 (ip), vehicle: saline sonified",104 % of control
COS(=O)(=O)C(F)(F)F,T/C,"dose: 100.0 mg/kg/injection, schedule: Q01DX001 (ip), vehicle: saline",111 % of control
same,T/C,"dose: 200.0 mg/kg/injection, schedule: Q01DX001 (ip), vehicle: saline",111 % of control
same,T/C,"dose: 400.0 mg/kg/injection, schedule: Q01DX001 (ip), vehicle: saline",111 % of control
NC(=O)N=Nc1ccc(Cl)c(Cl)c1,T/C,[1],100 % of control
same,T/C,[2],102 % of control
same,T/C,"dose: 200.0 mg/kg/injection, schedule: Q01DX005 (ip), vehicle: saline with Tween-80",102 % of control
CS(=O)(=O)OCc1ccc(COS(C)(=O)=O)cc1,T/C,"dose: 12.5 mg/kg/injection, schedule: Q04DX003 (ip), vehicle: Klucel (hydroxypropylcellulose) (HPC)",123 % of control
O=C1Cc2ccccc2C2CC12 (configuration not stated),T/C,"dose: 100.0 mg/kg/injection, schedule: Q01DX001 (ip), vehicle: Klucel (hydroxypropylcellulose) (HPC)",98 % of control
same,T/C,"dose: 200.0 mg/kg/injection, schedule: Q01DX001 (ip), vehicle: Klucel (hydroxypropylcellulose) (HPC)",113 % of control
same,T/C,"dose: 400.0 mg/kg/injection, schedule: Q01DX001 (ip), vehicle: Klucel (hydroxypropylcellulose) (HPC)",111 % of control
C[C@]12CCC(=O)C(O)=C1CC[C@@H]1[C@@H]2CC[C@@]2(C)[C@H]1CC[C@]2(C)O,T/C,[3],92 % of control
same,T/C,"dose: 25.0 mg/kg/injection, schedule: Q04DX003 (ip), vehicle: saline with Tween-80",100 % of control
same,T/C,[4],100 % of control
same,T/C,"dose: 50.0 mg/kg/injection, schedule: Q04DX003 (ip), vehicle: saline with Tween-80",105 % of control
same,T/C,[5],98 % of control
same,T/C,[6],101 % of control
same,T/C,[7],101 % of control
same,T/C,[8],105 % of control
CCCCCCCCCCCC[N+](C)([O-])Cc1ccccc1 (configuration not stated),T/C,[9],89 % of control
O=C1OP2(c3ccccc3)(OC(=O)c3ccccc32)c2ccccc21,T/C,"dose: 12.5 mg/kg/injection, schedule: Q01DX009 (ip), vehicle: saline with Tween-80",98 % of control and 94 % of control
same,T/C,[3],99 % of control and 92 % of control
same,T/C,[4],90 % of control and 95 % of control
same,T/C,[5],95 % of control
same,T/C,[7],88 % of control
O=C1C2=C(Nc3cc([N+](=O)[O-])ccc3N2)OC1c1cccc([N+](=O)[O-])c1 (configuration not stated),T/C,"dose: 60.0 mg/kg/injection, schedule: Q01DX005 (ip), vehicle: Klucel (hydroxypropylcellulose) (HPC)",97 % of control
same,T/C,"dose: 120.0 mg/kg/injection, schedule: Q01DX005 (ip), vehicle: Klucel (hydroxypropylcellulose) (HPC)",96 % of control
same,T/C,"dose: 240.0 mg/kg/injection, schedule: Q01DX005 (ip), vehicle: Klucel (hydroxypropylcellulose) (HPC)",102 % of control
CC12CCC3C(CCC4CC5OC(=O)CC5CC43C)C1CCC2=O (configuration not stated),T/C,"dose: 50.0 mg/kg/injection, schedule: Q04DX003 (ip), vehicle: Klucel (hydroxypropylcellulose) (HPC)",102 % of control
same,T/C,"dose: 100.0 mg/kg/injection, schedule: Q04DX003 (ip), vehicle: Klucel (hydroxypropylcellulose) (HPC)",107 % of control
same,T/C,"dose: 200.0 mg/kg/injection, schedule: Q04DX003 (ip), vehicle: Klucel (hydroxypropylcellulose) (HPC)",106 % of control
same,T/C,"dose: 400.0 mg/kg/injection, schedule: Q04DX003 (ip), vehicle: Klucel (hydroxypropylcellulose) (HPC)",101 % of control
CC(C)[C@H]1OC(=O)C=C2[C@@]13O[C@@H]3[C@H]1OC(=O)[C@]3(C)C1[C@]2(C)CC[C@@H]3O (some centres not stated),T/C,"dose: 1.0 mg/kg/injection, schedule: Q01DX009 (ip), vehicle: saline with Tween-80",101 % of control
same,T/C,"dose: 40.0 mg/kg/injection, schedule: Q01DX009 (ip), vehicle: saline with Tween-80",105 % of control
CC1=NOC(=O)/C1=C/c1ccc(Cl)c(Cl)c1,T/C,[1],112 % of control
same,T/C,[2],114 % of control
CC(=O)OC1COC(Nc2cc(=O)n(C)c(=O)[nH]2)C(OC(C)=O)C1OC(C)=O (configuration not stated),T/C,"dose: 100.0 mg/kg/injection, schedule: Q01DX001 (ip), vehicle: saline with Tween-80",101 % of control
same,T/C,"dose: 200.0 mg/kg/injection, schedule: Q01DX001 (ip), vehicle: saline with Tween-80",100 % of control
same,T/C,"dose: 400.0 mg/kg/injection, schedule: Q01DX001 (ip), vehicle: saline with Tween-80",95 % of control
CCCCC(CCC)(CCC)CCN,T/C,"dose: 2.5 mg/kg/injection, schedule: Q01DX009 (ip), vehicle: suspension in saline",104 % of control and 105 % of control
same,T/C,"dose: 5.0 mg/kg/injection, schedule: Q01DX009 (ip), vehicle: suspension in saline",100 % of control and 105 % of control
same,T/C,"dose: 10.0 mg/kg/injection, schedule: Q01DX009 (ip), vehicle: suspension in saline",122 % of control and 97 % of control
same,T/C,"dose: 20.0 mg/kg/injection, schedule: Q01DX009 (ip), vehicle: suspension in saline",106 % of control
COc1c2c(cc3c1-c1ccc(OC)c(=O)cc1C(NC(C)=O)CC3)OCO2 (configuration not stated),T/C,"dose: 0.47 mg/kg/injection, schedule: Q01DX009 (ip), vehicle: distilled water + Tween-80",157 % of control
same,T/C,"dose: 0.94 mg/kg/injection, schedule: Q01DX009 (ip), vehicle: distilled water + Tween-80",166 % of control
same,T/C,"dose: 3.75 mg/kg/injection, schedule: Q01DX009 (ip), vehicle: distilled water + Tween-80",155 % of control
same,T/C,"dose: 7.5 mg/kg/injection, schedule: Q01DX009 (ip), vehicle: distilled water + Tween-80",161 % of control
COc1cc2c(c(O)c1OC)-c1c(cc(OC)c(OC)c1OC)CC(C)C(C)C2 (configuration not stated),T/C,"dose: 11.25 mg/kg/injection, schedule: Q01DX009 (ip), vehicle: saline + alcohol",100 % of control and 95 % of control
same,T/C,"dose: 11.3 mg/kg/injection, schedule: Q01DX009 (ip), vehicle: saline + alcohol",106 % of control
same,T/C,"dose: 22.5 mg/kg/injection, schedule: Q01DX009 (ip), vehicle: saline + alcohol",101 % of control and 115 % of control and 96 % of control
same,T/C,"dose: 45.0 mg/kg/injection, schedule: Q01DX009 (ip), vehicle: saline + alcohol",106 % of control and 121 % of control and 97 % of control
same,T/C,"dose: 90.0 mg/kg/injection, schedule: Q01DX009 (ip), vehicle: saline + alcohol",113 % of control and 121 % of control and 92 % of control
same,T/C,"dose: 180.0 mg/kg/injection, schedule: Q01DX009 (ip), vehicle: saline + alcohol",96 % of control
[N-]=[N+]=C1N=CN=C1c1ncn[nH]1,T/C,"dose: 3.12 mg/kg/injection, schedule: Q01DX009 (ip), vehicle: Klucel (hydroxypropylcellulose) (HPC)",113 % of control
same,T/C,"dose: 12.5 mg/kg/injection, schedule: Q01DX009 (ip), vehicle: Klucel (hydroxypropylcellulose) (HPC)",150 % of control
same,T/C,"dose: 25.0 mg/kg/injection, schedule: Q01DX009 (ip), vehicle: Klucel (hydroxypropylcellulose) (HPC)",155 % of control
same,T/C,[9],160 % of control
c1ccc(-c2cc3ccccc3[nH]2)cc1,T/C,[4],90 % of control
same,T/C,[5],104 % of control
same,T/C,[7],102 % of control
O=C1c2ccccc2-c2cc3ccccc3c(=O)n21,T/C,[10],95 % of control
same,T/C,[11],91 % of control
same,T/C,"dose: 240.0 mg/kg/injection, schedule: Q01DX005 (ip), vehicle: saline with Tween-80",89 % of control
Cc1ccc(NS(=O)(=O)c2ccc3ccccc3c2)c(C)c1,T/C,[6],100 % of control
same,T/C,[8],100 % of control
same,T/C,"dose: 400.0 mg/kg/injection, schedule: Q04DX003 (ip), vehicle: saline with Tween-80",104 % of control
CC1(C)CN(Cc2ccccc2)C1(C)C#N (configuration not stated),T/C,[10],100 % of control
same,T/C,[11],105 % of control
CCC[CH2][Sn]([Cl])([CH2]CCC)[S]C(=S)NCCNC(=S)[S][Sn]([Cl])([CH2]CCC)[CH2]CCC,T/C,"dose: 0.78 mg/kg/injection, schedule: Q01DX009 (ip), vehicle: Klucel (hydroxypropylcellulose) (HPC)",93 % of control
same,T/C,"dose: 1.56 mg/kg/injection, schedule: Q01DX009 (ip), vehicle: Klucel (hydroxypropylcellulose) (HPC)",98 % of control
Nc1c[nH]c2ccccc2c1=O,T/C,[9],104 % of control
same,T/C,"dose: 100.0 mg/kg/injection, schedule: Q01DX009 (ip), vehicle: Klucel (hydroxypropylcellulose) (HPC)",101 % of control
same,T/C,"dose: 200.0 mg/kg/injection, schedule: Q01DX009 (ip), vehicle: Klucel (hydroxypropylcellulose) (HPC)",100 % of control
